Source: US10683269B2 (MISSION THERAPEUTICS LIMITED, priority 2016, dated 2020)

Target: T1, USP7 (Homo sapiens, UniProt Q93009)
T1 construct: The USP7 construct was PCR amplified and cloned into a pFLAG-CMV-6a vector (Sigma-Aldrich) with an N-terminal FLAG tag; made in house; host or cells: HEK293T
Test: USP7 biochemical IC50 assay (fluorescence polarisation, TAMRA labelled peptide linked to ubiquitin via an iso-peptide bond)
Details: 30 min pre-incubation of enzyme and compound, read after 2 hr incubation at room temperature, read-out: IC50 range
Method in brief: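 Fluorescence polarisation at 540 nm excitation/590 nm emission, read immediately and after 2 hr at room temperature, following addition of 50 nM TAMRA-labelled iso-peptide ubiquitin substrate.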

T1 sequence (Q93009 whole entry): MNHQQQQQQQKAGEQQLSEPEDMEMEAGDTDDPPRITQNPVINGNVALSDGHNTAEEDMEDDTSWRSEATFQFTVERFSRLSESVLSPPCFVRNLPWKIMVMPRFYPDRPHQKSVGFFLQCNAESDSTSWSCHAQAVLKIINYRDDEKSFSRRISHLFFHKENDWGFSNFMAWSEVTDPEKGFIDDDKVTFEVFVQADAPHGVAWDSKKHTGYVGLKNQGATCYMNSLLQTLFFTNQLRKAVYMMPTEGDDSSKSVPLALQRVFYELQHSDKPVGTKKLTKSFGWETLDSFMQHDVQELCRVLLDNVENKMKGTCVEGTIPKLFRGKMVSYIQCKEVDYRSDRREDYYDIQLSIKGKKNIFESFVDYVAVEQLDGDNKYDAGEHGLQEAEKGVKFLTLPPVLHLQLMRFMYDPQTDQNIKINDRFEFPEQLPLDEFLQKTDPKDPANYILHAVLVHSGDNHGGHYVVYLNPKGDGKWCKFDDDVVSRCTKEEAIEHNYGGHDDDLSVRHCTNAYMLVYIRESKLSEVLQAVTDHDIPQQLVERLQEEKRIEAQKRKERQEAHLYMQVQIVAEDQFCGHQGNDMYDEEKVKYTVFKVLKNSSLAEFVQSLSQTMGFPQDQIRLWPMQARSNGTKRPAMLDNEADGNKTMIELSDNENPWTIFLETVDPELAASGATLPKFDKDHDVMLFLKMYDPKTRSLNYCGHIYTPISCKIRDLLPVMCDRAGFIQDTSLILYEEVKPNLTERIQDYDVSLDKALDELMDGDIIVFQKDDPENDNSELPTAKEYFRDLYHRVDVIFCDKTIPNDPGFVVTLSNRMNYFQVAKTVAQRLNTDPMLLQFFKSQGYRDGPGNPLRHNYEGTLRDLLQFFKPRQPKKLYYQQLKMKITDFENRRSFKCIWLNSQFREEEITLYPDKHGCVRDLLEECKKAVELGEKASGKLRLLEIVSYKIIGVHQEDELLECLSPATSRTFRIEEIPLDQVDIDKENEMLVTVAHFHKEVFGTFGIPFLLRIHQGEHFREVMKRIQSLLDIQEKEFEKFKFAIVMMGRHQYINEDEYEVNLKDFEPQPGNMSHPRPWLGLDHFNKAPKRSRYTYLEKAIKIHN

Structure (SMILES) | IC50
Cn1cc2cc(-c3cccc4c3CN(C#N)C4)ccc2n1 [Example 11, 4-(2-methyl-2H-indazol-5-yl)isoindoline-2-carbonitrile] | 1 to 10 µM
COc1ccc(-c2cc(NC(=O)[C@@H]3CCCN(C)C3)cc3c2CN(C#N)C3)cc1 [Example 32, (R)-N-(2-cyano-7-(4-methoxyphenyl)isoindolin-5-yl)-1-methylpiperidine-3-carboxamide] | < 1 µM
N#Cc1ccc(-c2cccc3c2CN(C#N)C3)c(Cl)c1 [Example 65, 4-(2-chloro-4-cyanophenyl)isoindoline-2-carbonitrile] | 1 to 10 µM
Cc1cc(C#N)ccc1-c1cccc2c1CN(C#N)C2 [Example 66, 4-(4-cyano-2-methylphenyl)isoindoline-2-carbonitrile] | 1 to 10 µM
CN(C)CC(=O)Nc1cc2c(c(-c3ccccc3)c1)CN(C#N)C2 [Example 49] | < 1 µM
CC(=O)Nc1cccc(-c2nc(NC(C)=O)nc3c2CN(C#N)C3)c1 [Example 108, N-(3-(2-acetamido-6-cyano-6,7-dihydro-5H-pyrrolo[3,4-d]pyrimidin-4-yl)phenyl)acetamide] | 1 to 10 µM
CN(CCO)c1nc2c(c(-c3ccccc3)n1)CN(C#N)C2 [Example 190, 2-((2-hydroxyethyl)(methyl)amino)-4-phenyl-5,7-dihydro-6H-pyrrolo[3,4-d]pyrimidine-6-carbonitrile] | 1 to 10 µM
N#CN1Cc2cccc(-c3cccc4c3C(=O)NCC4)c2C1 [Example 69, 4-(1-oxo-1,2,3,4-tetrahydroisoquinolin-8-yl)isoindoline-2-carbonitrile] | 1 to 10 µM
N#CN1Cc2cccc(-c3cccc4c3NC(=O)C4)c2C1 [Example 165, 4-(2-oxoindolin-7-yl)isoindoline-2-carbonitrile] | 1 to 10 µM
CCN1CCOC(C(=O)Nc2cc3c(c(-c4ccccc4)c2)CN(C#N)C3)C1 (stereo not drawn) [Example 54, N-(2-cyano-7-phenylisoindolin-5-yl)-4-ethylmorpholine-2-carboxamide] | < 1 µM
N#CN1Cc2cccc(-c3ccccc3S(=O)(=O)NCCO)c2C1 [Example 179, 2-(2-cyanoisoindolin-4-yl)-N-(2-hydroxyethyl)benzenesulfonamide] | 1 to 10 µM
N#CN1Cc2nc(NCC3CCOCC3)nc(N3CCc4ccccc4C3)c2C1 [Example 200, 4-(3,4-dihydroisoquinolin-2(1H)-yl)-2-(((tetrahydro-2H-pyran-4-yl)methyl)amino)-5,7-dihydro-6H-pyrrolo[3,4-d]pyrimidine-6-carbonitrile] | 1 to 10 µM

Further lines, results first:

IC50 | Structure (SMILES)
1 to 10 µM | CS(=O)(=O)Nc1cc2c(c(-c3ccc(C#N)cc3)c1)CN(C#N)C2 [Example 244, N-(2-cyano-7-(4-cyanophenyl)isoindolin-5-yl)methanesulfonamide]
1 to 10 µM | N#CN1Cc2nc(NCCO)nc(N3CCC(Oc4ccccc4)CC3)c2C1 [Example 206, 2-((2-hydroxyethyl)amino)-4-(4-phenoxypiperidin-1-yl)-5,7-dihydro-6H-pyrrolo[3,4-d]pyrimidine-6-carbonitrile]
1 to 10 µM | N#CN1Cc2ncnc(-c3cccc(N4CCNC4=O)c3)c2C1 [Example 300, 4-(3-(2-oxoimidazolidin-1-yl)phenyl)-5,7-dihydro-6H-pyrrolo[3,4-c]pyrimidine-6-carbonitrile]
1 to 10 µM | CN1CC(C(=O)Nc2cc3c(c(-c4ccc(C#N)cc4)c2)CN(C#N)C3)CCC1=O (stereo not drawn) [Example 266, N-(2-cyano-7-(4-cyanophenyl)isoindolin-5-yl)-1-methyl-6-oxopiperidine-3-carboxamide]
1 to 10 µM | N#CN1Cc2nc(NCC(O)CO)cc(-c3ccc(F)cc3)c2C1 (stereo not drawn) [Example 250, 2-((2,3-dihydroxypropyl)amino)-4-(4-fluorophenyl)-5,7-dihydro-6H-pyrrolo[3,4-b]pyridine-6-carbonitrile]
1 to 10 µM | CCNc1cc2c(c(-c3ccc(C#N)cc3)c1)CN(C#N)C2 [Example 277, 4-(4-cyanophenyl)-6-(ethylamino)isoindoline-2-carbonitrile]
